According to patent publication US20260123631A1, “NATURAL PORPHIN SALT AND USE THEREOF AS PLANT GROWTH REGULATOR AND PLANT IMMUNITY INDUCER” (NANJING BOSTEC BIOLOGICAL ENGINEERING CO., LTD, priority 2022, published 2026):
Like-named read-outs stand apart in the source and are kept apart here.

What was measured:
chlorophyllase = assay: In vitro chlorophyllase-inhibiting activity test; type: biochemical, mung bean
Description: A chlorophyllase inhibition rate of a salt sample solution at each concentration was determined, and an IC50 value for a chlorophyllase inhibition activity of a salt sample was calculated.

[1] = Stability of sample solutions in the dark/under light; type: physicochemical
Description: Determination: An appropriate amount of a salt sample was taken, dissolved with water, and diluted to prepare a test solution with a concentration of about 10 ppm. An acidic reference substance (extremely-insoluble in water) was prepared with a 30% to 50% ethanol aqueous solution into a test solution with a concentration of about 10 ppm.
Each test solution was scanned by an ultraviolet spectrophotometer (at 0 h) for absorbance in a range of 200 nm to 800 nm immediately after being prepared. Then a test solution of each sample was divided into two parts. One part was placed at room temperature of 25° C. in the dark, and the other part was placed under light with a light intensity of 30,000 lux. At 1 h, 2 h, and 3 h, a solution sample was collected and scanned for absorbance respectively.
An absorbance value of a maximum absorption peak at 0 h (starting) of each test solution was set as a relative content of 100%, and a ratio of an absorbance value at each time point to the absorbance value at 0 h was calculated to determine a relative content, %.

[2] = Water solubility of the prepared salts; type: physicochemical
[3] = Dilution and pH determination for sample solutions; type: physicochemical
Description: Method: 0.2500 g of a sample was accurately weighed and added to a 25 mL volumetric flask, dissolved with purified water, and diluted to a specified scale to prepare a 1.00% (10,000.0 ppm) initial solution. The initial solution was diluted with purified water in different ratios to prepare a series of solutions with a concentration of 1,000.0 ppm to 0.1 ppm. A pH value of each sample was determined three times.

wheat = assay: Germination of wheat and growth of seedlings; type: in vivo, wheat (Huaimai 35); settings: for Root length / Root number / Root weight / Seedling height / Seedling weight: wheat seedlings
Description: Method: 3 replicates were set for each treatment. 50 full seeds with a consistent size were selected each time for each sample, disinfected with sodium hypochlorite for 5 min, rinsed with clear water, and placed in a plastic box filled with 100 g of a sand. 25 mL of a prepared sample solution was poured into the plastic box, and the seeds were arranged regularly. The plastic box was covered with a lid, and then incubated in a 25° C. incubator. The germination was determined when a length of a sprout of a wheat seed exceeded a half of a diameter (long axis) of the wheat seed (determination criterion). According to the growth of wheat, the germ exposure of seeds and the number of germinated seeds were recorded every day. On day 6, 10 wheat seedlings were randomly selected, and a root length, a plant height, and a root number were determined. On day 7, a root weight and an aboveground part weight were determined. All index data was produced based on 3 replicates.

[4] = under light 30,000 lux, 1 h, salts in water, acidic reference in 30% to 50% ethanol
[5] = under light 30,000 lux, 2 h, salts in water, acidic reference in 30% to 50% ethanol
[6] = under light 30,000 lux, 3 h, salts in water, acidic reference in 30% to 50% ethanol
[7] = substrate chlorophyll 120 ppm, sample 0.3 ppm to 30.0 ppm

Molecule	Relative content [1, 4] [%]	Relative content [1, 5] [%]	Relative content [1, 6] [%]	IC50 for chlorophyllase inhibition activity (chlorophyllase; [7]) [ppm]	solubility in water [2]	other results
manganese zinc chlorophyllin [Example 40]						IC50 for chlorophyllase inhibition activity (chlorophyllase): 18.10 ppm
zinc chlorin [Example 60]	55.66	50.60	45.30	6.37	slightly soluble	
C=CC1=C(C)c2cc3[n-]c(cc4nc(cc5[n-]c(cc1n2)c(C)c5C=C)C(C)=C4CCC(=O)[O-])c(CCC(=O)[O-])c3C.[Cl-].[Fe+3].[Mg+2] [Example 13, magnesium chlorhematin]	82.11	81.84	75.61		soluble	Relative content ([1]; in the dark, 25° C., 0 h): 100.00%; Relative content ([1]; in the dark, 25° C., 1 h): 100.10%; Relative content ([1]; in the dark, 25° C., 2 h): 99.76%; Relative content ([1]; in the dark, 25° C., 3 h): 99.38%; Relative content ([1]; under light 30,000 lux, 0 h): 100.00%; pH ([3]; 0.1 ppm in purified water): (6.92); pH ([3]; 1.0 ppm in purified water): (7.27); pH ([3]; 10.0 ppm in purified water): (7.63); pH ([3]; 20.0 ppm in purified water): (7.77); pH ([3]; 30.0 ppm in purified water): (7.87); pH ([3]; 100.0 ppm in purified water): (8.01)
calcium copper chlorophyllin [Example 46]				13.49		
copper chlorin [Example 61]	85.27	82.15	80.17	6.18	slightly soluble	
potassium protoporphyrin [Example 1]	65.90	56.97	58.17		easily soluble	Germination rate of wheat (wheat; 0.0025 ppm): 94.7%; Root length (wheat; 0.0025 ppm): 9.63 cm; Root number (wheat; 0.0025 ppm): 5.4; Root weight (wheat; 0.0025 ppm): 0.1230 g; Seedling height (wheat; 0.0025 ppm): 8.95 cm; Seedling weight (wheat; 0.0025 ppm): 0.241 g; Germination rate of wheat (wheat; 0.0250 ppm): 95.3%; Root length (wheat; 0.0250 ppm): 10.17 cm; Root number (wheat; 0.0250 ppm): 5.2; Root weight (wheat; 0.0250 ppm): 0.0976 g; Seedling height (wheat; 0.0250 ppm): 9.48 cm; Seedling weight (wheat; 0.0250 ppm): 0.242 g; Germination rate of wheat (wheat; 0.2500 ppm): 90.7%; Root length (wheat; 0.2500 ppm): 8.68 cm; Root number (wheat; 0.2500 ppm): 5.3; Root weight (wheat; 0.2500 ppm): 0.1134 g; Seedling height (wheat; 0.2500 ppm): 7.64 cm; Seedling weight (wheat; 0.2500 ppm): 0.228 g
sodium chlorin [Example 53]	41.71	30.78	26.96	6.03	easily soluble	
ammonium chlorin [Example 54]				6.05		
manganese iron chlorin [Example 27]	72.13	68.26	63.87	5.20	slightly soluble	
C=CC1=C(C)c2cc3[n-]c(cc4nc(cc5[n-]c(cc1n2)c(C)c5C=C)C(C)=C4CCC(=O)[O-])c(CCC(=O)[O-])c3C.[Cl-].[Fe+3].[Na+].[Na+] [Example 11, sodium chlorhematin]	74.11	69.68	67.73		easily soluble	pH ([3]; 20 ppm solution in water (Comparative Test 2)): 7.5
calcium zinc chlorophyllin [Example 37]						IC50 for chlorophyllase inhibition activity (chlorophyllase): 17.78 ppm
calcium iron chlorin [Example 24]				5.11		
ammonium copper chlorophyllin [Example 44]						IC50 for chlorophyllase inhibition activity (chlorophyllase): 13.68 ppm
magnesium zinc chlorophyllin [Example 36]	53.53	45.74	39.42	16.37		
potassium zinc chlorophyllin [Zinc chlorophyllin K^+]	52.48	46.08	41.51	15.55		
potassium iron chlorophyllin [Example 30]	72.04	65.63	57.54	5.09	easily soluble	
zinc iron chlorophyllin [Iron chlorophyllin Zn^2+]	69.34	63.04	60.46	5.16		
sodium copper chlorophyllin [Copper chlorophyllin Na^+]	72.50	67.03	66.30	13.72		
magnesium iron chlorin [Example 23]	74.25	66.34	62.11	5.06		
ammonium iron chlorophyllin [Example 31]				5.43		

Second part, led by results:

Relative content [1, 4] [%]	Relative content [1, 5] [%]	Relative content [1, 6] [%]	IC50 for chlorophyllase inhibition activity (chlorophyllase; [7]) [ppm]	solubility in water [2]	Molecule	other results
44.94	40.28	34.21	6.23	slightly soluble	manganese chlorin [Example 59]	
			5.58		ammonium iron chlorin [Example 22]	
51.90	42.51	37.81	15.91		sodium zinc chlorophyllin [Zinc chlorophyllin Na^+]	
69.84	65.37	60.04	14.19	slightly soluble	zinc copper chlorophyllin [Example 50]	
60.05	46.81	42.89	5.98	easily soluble	potassium chlorin [Example 52]	
83.53	77.11	78.11	12.89	easily soluble	potassium copper chlorophyllin [Example 43]	
43.47	35.26	30.41	6.22		magnesium chlorin [Example 55]	
76.34	72.11	67.37	13.85	soluble	manganese copper chlorophyllin [Example 47]	
74.46	68.03	66.86	11.87		magnesium copper chlorophyllin [Example 45]	
			6.43		calcium chlorin [Example 56]	
70.13	61.00	58.68	5.55		manganese iron chlorophyllin [Iron chlorophyllin Mn^2+]	
72.13	68.58	65.03	5.04	slightly soluble	copper iron chlorophyllin [Example 34]	
81.00	74.21	63.35	5.38		calcium iron chlorophyllin [Iron chlorophyllin Ca^2+]	
			18.06		ammonium zinc chlorophyllin [Example 35]	
